Laboratory results from patent US9012655B2, “Antimicrobial/adjuvant compounds and methods” (Denouamed, Inc., priority 2011, dated 2015).
Values after ≈ are worked out from the molar mass of the structure shown.

Key:
Test in all cases: MIC panel of challenge pathogens (CLSI)
Format in all cases: cell-based
[1] = tested on: Staphylococcus aureus EUP MRSA004; conditions: EUPMRSA004, Staphylococcus aureus EUP MRSA004; for MIC: read-out: 100% inhibition; for MIC50: read-out: MIC50 (50%); for MIC80: read-out: MIC80 (80%)
Experimental: (§1) The inocula for each bacterial strain were prepared by picking 5-10 distinct colonies from the culture plates and suspending them in the appropriate broth as per Clinical and Laboratory Standards Institute (CLSI) guidelines M07-A8, M24-A or M11-A7 as appropriate. The inoculum was resuspended by vigorous shaking on a vortex mixer for 15 s. The turbidity was then adjusted to McFarland standard 0.5 ([…]). The inoculum was further diluted in the appropriate media for MIC tests to give a final inoculum in each well of 2-8×10^5 CFU/ml. MICs were tested in the appropriate broth in accordance with the appropriate CLSI guidelines.
(§2) A stock solution of each compound was prepared at a concentration of 1.28 g/L in DMSO. The stock was further diluted in the appropriate media to give a top starting concentration of 128 mg/L in the assay. 100 μL of the appropriate media, as per CLSI guidelines, was dispensed into each well in columns 2-12. 200 μL of the each compound solution (at 256 mg/L) was dispensed into each well in column 1. 100 μL aliquots were pipetted from column 1 wells and dispensed into column 2 with a multichannel pipette (±2% coefficient of variation) thus diluting two-fold. 100 μL samples were then pipetted from column 2 wells and dispensed into column 3. The process was repeated through to column 10. The final 100 μL of diluted drug from column 10 was then discarded. Row 11 acted as a positive control (no compound, but organisms added), Row 12 acted as a negative control (no compound, and no organisms added).
(§3) 100 μL of the appropriate inoculum suspension in the appropriate media, as per CLSI guidelines, was added to the appropriate wells. […] All plates were incubated in the dark under aerobic or anaerobic conditions at 30-37° C. for 24-48 hours, according to the appropriate CLSI guideline. Plates were read visually 24-48 hours post inoculation. Endpoints of 100% inhibition were determined (CLSI interpretation endpoints following visual examination).
(§4) MIC50, MIC80, and 100% inhibition results are reported below in μg/mL in the following Tables, indicating each compound tested against a given species and strain: […]

[2] = tested on: Enterococcus faecalis ATCC51299; conditions: Enterococcus faecalis ATCC51299; for MIC: read-out: 100% inhibition; for MIC50: read-out: MIC50 (50%); for MIC80: read-out: MIC80 (80%)
Experimental: as §1, §2, §3, §4

[3] = tested on: Staphylococcus aureus NRS383; conditions: Staphylococcus aureus NRS383; for MIC: read-out: 100% inhibition; for MIC50: read-out: MIC50 (50%); for MIC80: read-out: MIC80 (80%)
Experimental: as §1, §2, §3, §4

[4] = tested on: Staphylococcus aureus AUR59 7005; conditions: AUR597005, Staphylococcus aureus AUR59 7005; for MIC: read-out: 100% inhibition; for MIC50: read-out: MIC50 (50%); for MIC80: read-out: MIC80 (80%)
Experimental: as §1, §2, §3, §4

[5] = tested on: Staphylococcus aureus AUR60 7005; conditions: AUR607005, Staphylococcus aureus AUR60 7005; for MIC: read-out: 100% inhibition; for MIC50: read-out: MIC50 (50%); for MIC80: read-out: MIC80 (80%)
Experimental: as §1, §2, §3, §4

[6] = tested on: Staphylococcus aureus AUR58 7005; conditions: AUR587005, Staphylococcus aureus AUR58 7005; for MIC: read-out: 100% inhibition; for MIC50: read-out: MIC50 (50%); for MIC80: read-out: MIC80 (80%)
Experimental: as §1, §2, §3, §4

[7] = tested on: Staphylococcus aureus NRS384; conditions: Staphylococcus aureus NRS384; for MIC: read-out: 100% inhibition; for MIC50: read-out: MIC50 (50%); for MIC80: read-out: MIC80 (80%)
Experimental: as §1, §2, §3, §4

[8] = tested on: Staphylococcus aureus AUR131 007035; conditions: AUR131007035, Staphylococcus aureus AUR131 007035; for MIC: read-out: 100% inhibition; for MIC50: read-out: MIC50 (50%); for MIC80: read-out: MIC80 (80%)
Experimental: as §1, §2, §3, §4

[9] = tested on: Staphylococcus aureus EUP SAU040; conditions: EUPSAU040, Staphylococcus aureus EUP SAU040; for MIC: read-out: 100% inhibition; for MIC50: read-out: MIC50 (50%); for MIC80: read-out: MIC80 (80%)
Experimental: as §1, §2, §3, §4

[10] = tested on: Staphylococcus aureus NRS2 (ATCC700698); conditions: Staphylococcus aureus NRS2 (ATCC700698); for MIC: read-out: 100% inhibition; for MIC50: read-out: MIC50 (50%); for MIC80: read-out: MIC80 (80%)
Experimental: as §1, §2, §3, §4

[11] = tested on: Staphylococcus aureus NRS382; conditions: Staphylococcus aureus NRS382; for MIC: read-out: 100% inhibition; for MIC50: read-out: MIC50 (50%); for MIC80: read-out: MIC80 (80%)
Experimental: as §1, §2, §3, §4

[12] = tested on: Staphylococcus epidermidis NRS7; conditions: Staphylococcus epidermidis NRS7; for MIC: read-out: 100% inhibition; for MIC50: read-out: MIC50 (50%); for MIC80: read-out: MIC80 (80%)
Experimental: as §1, §2, §3, §4

[13] = tested on: Enterococcus faecalis ATCC29212; conditions: Enterococcus faecalis ATCC29212; for MIC: read-out: 100% inhibition; for MIC50: read-out: MIC50 (50%); for MIC80: read-out: MIC80 (80%)
Experimental: as §1, §2, §3, §4

[14] = tested on: Staphylococcus aureus ATCC43300; conditions: Staphylococcus aureus ATCC43300; for MIC: read-out: 100% inhibition; for MIC50: read-out: MIC50 (50%); for MIC80: read-out: MIC80 (80%)
Experimental: as §1, §2, §3, §4

[15] = tested on: Staphylococcus aureus EUP MRSA002; conditions: EUPMRSA002, Staphylococcus aureus EUP MRSA002; for MIC: read-out: 100% inhibition; for MIC50: read-out: MIC50 (50%); for MIC80: read-out: MIC80 (80%)
Experimental: as §1, §2, §3, §4

Bacillus cereus NCTC6349 = conditions: Bacillus cereus NCTC6349; for MIC: read-out: 100% inhibition; for MIC50: read-out: MIC50 (50%); for MIC80: read-out: MIC80 (80%)
Experimental: as §1, §2, §3, §4

[16] = tested on: Staphylococcus epidermidis NRS122; conditions: Staphylococcus epidermidis NRS122; for MIC: read-out: 100% inhibition; for MIC50: read-out: MIC50 (50%); for MIC80: read-out: MIC80 (80%)
Experimental: as §1, §2, §3, §4

[17] = tested on: Enterococcus faecium ATCC700221; conditions: Enterococcus faecium ATCC700221; for MIC: read-out: 100% inhibition; for MIC50: read-out: MIC50 (50%); for MIC80: read-out: MIC80 (80%)
Experimental: as §1, §2, §3, §4

[18] = tested on: Staphylococcus aureus NRS1 (ATCC700699); conditions: Staphylococcus aureus NRS1 (ATCC700699); for MIC: read-out: 100% inhibition; for MIC50: read-out: MIC50 (50%); for MIC80: read-out: MIC80 (80%)
Experimental: as §1, §2, §3, §4

## Fc1ccc(-c2cc(-c3nnn[nH]3)sc2-c2ccc(F)c3ccccc23)c2ccccc12 [DNM0537, 5-(4,5-Bis(4-fluoronaphthalen-1-yl)thiophen-2-yl)-1H-tetrazole]
[1]
  MIC: 1 µg/mL (≈ 2.27 µM)
  MIC50: 0.5 µg/mL (≈ 1.14 µM)
  MIC80: 1 µg/mL (≈ 2.27 µM)
[2]
  MIC: 0.5 µg/mL (≈ 1.14 µM)
  MIC50: 0.5 µg/mL (≈ 1.14 µM)
  MIC80: 0.5 µg/mL (≈ 1.14 µM)
[3]
  MIC: ≤ 0.25 µg/mL
  MIC50: ≤ 0.25 µg/mL
  MIC80: ≤ 0.25 µg/mL
[4]
  MIC: ≤ 0.25 µg/mL
  MIC50: ≤ 0.25 µg/mL
  MIC80: ≤ 0.25 µg/mL
[5]
  MIC: ≤ 0.25 µg/mL
  MIC50: ≤ 0.25 µg/mL
  MIC80: ≤ 0.25 µg/mL
[6]
  MIC: ≤ 0.25 µg/mL
  MIC50: ≤ 0.25 µg/mL
  MIC80: ≤ 0.25 µg/mL
[7]
  MIC: ≤ 0.25 µg/mL
  MIC50: ≤ 0.25 µg/mL
  MIC80: ≤ 0.25 µg/mL
[8]
  MIC: ≤ 0.25 µg/mL
  MIC50: ≤ 0.25 µg/mL
  MIC80: ≤ 0.25 µg/mL
[9]
  MIC: 1 µg/mL (≈ 2.27 µM)
  MIC50: 1 µg/mL (≈ 2.27 µM)
  MIC80: 1 µg/mL (≈ 2.27 µM)
[10]
  MIC: 1 µg/mL (≈ 2.27 µM)
  MIC50: 1 µg/mL (≈ 2.27 µM)
  MIC80: 1 µg/mL (≈ 2.27 µM)
[11]
  MIC: ≤ 0.25 µg/mL
  MIC50: ≤ 0.25 µg/mL
  MIC80: ≤ 0.25 µg/mL
[12]
  MIC: 1 µg/mL (≈ 2.27 µM)
  MIC50: 0.5 µg/mL (≈ 1.14 µM)
  MIC80: 1 µg/mL (≈ 2.27 µM)
[13]
  MIC: 1 µg/mL (≈ 2.27 µM)
  MIC50: 0.5 µg/mL (≈ 1.14 µM)
  MIC80: 1 µg/mL (≈ 2.27 µM)
[14]
  MIC: 1 µg/mL (≈ 2.27 µM)
  MIC50: 0.5 µg/mL (≈ 1.14 µM)
  MIC80: 1 µg/mL (≈ 2.27 µM)
[15]
  MIC: 1 µg/mL (≈ 2.27 µM)
  MIC50: 1 µg/mL (≈ 2.27 µM)
  MIC80: 1 µg/mL (≈ 2.27 µM)
Bacillus cereus NCTC6349
  MIC: ≤ 0.25 µg/mL
  MIC50: ≤ 0.25 µg/mL
  MIC80: ≤ 0.25 µg/mL
[16]
  MIC: 4 µg/mL (≈ 9.08 µM)
  MIC50: 4 µg/mL (≈ 9.08 µM)
  MIC80: 4 µg/mL (≈ 9.08 µM)
[17]
  MIC: 0.5 µg/mL (≈ 1.14 µM)
  MIC50: 0.5 µg/mL (≈ 1.14 µM)
  MIC80: 0.5 µg/mL (≈ 1.14 µM)
[18]
  MIC: ≤ 0.25 µg/mL
  MIC50: ≤ 0.25 µg/mL
  MIC80: ≤ 0.25 µg/mL

## CC(C)c1cc(Cl)ccc1-c1cc(-c2nnn[nH]2)sc1-c1ccc(Cl)cc1C(C)C [DNM0548, 5-(4,5-Bis(4-chloro-2-iso-propylphenyl)thiophen-2-yl)-1H-tetrazole]
[1]
  MIC: 0.5 µg/mL (≈ 1.09 µM)
  MIC50: 0.5 µg/mL (≈ 1.09 µM)
  MIC80: 0.5 µg/mL (≈ 1.09 µM)
[2]
  MIC: ≤ 0.25 µg/mL
  MIC50: ≤ 0.25 µg/mL
  MIC80: ≤ 0.25 µg/mL
[3]
  MIC: ≤ 0.25 µg/mL
  MIC50: ≤ 0.25 µg/mL
  MIC80: ≤ 0.25 µg/mL
[4]
  MIC: 0.5 µg/mL (≈ 1.09 µM)
  MIC50: 0.5 µg/mL (≈ 1.09 µM)
  MIC80: 0.5 µg/mL (≈ 1.09 µM)
[5]
  MIC: 0.5 µg/mL (≈ 1.09 µM)
  MIC50: 0.5 µg/mL (≈ 1.09 µM)
  MIC80: 0.5 µg/mL (≈ 1.09 µM)
[6]
  MIC: 1 µg/mL (≈ 2.19 µM)
  MIC50: 1 µg/mL (≈ 2.19 µM)
  MIC80: 1 µg/mL (≈ 2.19 µM)
[7]
  MIC: ≤ 0.25 µg/mL
  MIC50: ≤ 0.25 µg/mL
  MIC80: ≤ 0.25 µg/mL
[8]
  MIC: 0.5 µg/mL (≈ 1.09 µM)
  MIC50: 0.5 µg/mL (≈ 1.09 µM)
  MIC80: 0.5 µg/mL (≈ 1.09 µM)
[9]
  MIC: 0.5 µg/mL (≈ 1.09 µM)
  MIC50: 0.5 µg/mL (≈ 1.09 µM)
  MIC80: 0.5 µg/mL (≈ 1.09 µM)
[10]
  MIC: 0.5 µg/mL (≈ 1.09 µM)
  MIC50: 0.5 µg/mL (≈ 1.09 µM)
  MIC80: 0.5 µg/mL (≈ 1.09 µM)
[11]
  MIC: 0.5 µg/mL (≈ 1.09 µM)
  MIC50: 0.5 µg/mL (≈ 1.09 µM)
  MIC80: 0.5 µg/mL (≈ 1.09 µM)
[12]
  MIC: 0.5 µg/mL (≈ 1.09 µM)
  MIC50: 0.5 µg/mL (≈ 1.09 µM)
  MIC80: 0.5 µg/mL (≈ 1.09 µM)
[13]
  MIC: 0.25 µg/mL (≈ 0.547 µM)
  MIC50: 0.25 µg/mL (≈ 0.547 µM)
  MIC80: 0.25 µg/mL (≈ 0.547 µM)
[14]
  MIC: ≤ 0.25 µg/mL
  MIC50: ≤ 0.25 µg/mL
  MIC80: ≤ 0.25 µg/mL
[15]
  MIC: 0.5 µg/mL (≈ 1.09 µM)
  MIC50: 0.5 µg/mL (≈ 1.09 µM)
  MIC80: 0.5 µg/mL (≈ 1.09 µM)
Bacillus cereus NCTC6349
  MIC: ≤ 0.25 µg/mL
  MIC50: ≤ 0.25 µg/mL
  MIC80: ≤ 0.25 µg/mL
[16]
  MIC: 1 µg/mL (≈ 2.19 µM)
  MIC50: 1 µg/mL (≈ 2.19 µM)
  MIC80: 1 µg/mL (≈ 2.19 µM)
[17]
  MIC: ≤ 0.25 µg/mL
  MIC50: ≤ 0.25 µg/mL
  MIC80: ≤ 0.25 µg/mL
[18]
  MIC: ≤ 0.25 µg/mL
  MIC50: ≤ 0.25 µg/mL
  MIC80: ≤ 0.25 µg/mL
